Where “and” joins values, the source holds several entries; their conditions need not be identical. Identical values can stand only once.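 Assay format: 96-well plates, 48-hour exposure. GI50: concentration for 50% inhibition of growth. TGI: total growth inhibition.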
What was measured:
Experiment in all cases: inhibition of tumour cell growth, NCI panel, 48 h
NCI-H460 lung = tested on: NCI-H460 lung
SK-MEL-28 melanoma = tested on: SK-MEL-28 melanoma
MDA-MB-435 = tested on: MDA-MB-435
UACC-62 melanoma = tested on: UACC-62 melanoma
BT-549 breast = tested on: BT-549 breast
HS 578T breast = tested on: HS 578T breast
OVCAR-3 ovarian = tested on: OVCAR-3 ovarian
CCRF-CEM leukemia = tested on: CCRF-CEM leukemia
ACHN renal = tested on: ACHN renal
UACC-257 melanoma = tested on: UACC-257 melanoma

Row | Structure (SMILES) | GI50 (NCI-H460 lung) | TGI (NCI-H460 lung) | GI50 (SK-MEL-28 melanoma) | TGI (SK-MEL-28 melanoma) | GI50 (MDA-MB-435) | TGI (MDA-MB-435) | GI50 (UACC-62 melanoma) | TGI (UACC-62 melanoma) | GI50 (BT-549 breast) | TGI (BT-549 breast) | GI50 (HS 578T breast) | TGI (HS 578T breast) | GI50 (OVCAR-3 ovarian) | TGI (OVCAR-3 ovarian) | GI50 (CCRF-CEM leukemia) | TGI (CCRF-CEM leukemia) | GI50 (ACHN renal) | TGI (ACHN renal) | GI50 (UACC-257 melanoma) | TGI (UACC-257 melanoma)
1 | CCS(=O)(=O)c1ccc(OC)c(Nc2ncc(-c3cccc(-c4ccccc4F)c3)o2)c1 | > 25 µM | > 25 µM | > 25 µM | > 25 µM | > 25 µM | > 25 µM | > 25 µM | > 25 µM | > 22.2 µM | > 25 µM | 3.63 µM | 15.8 µM | 15.7 µM | > 25 µM | > 25 µM | > 25 µM | 13.1 µM | > 25 µM | > 25 µM | > 25 µM
2 | O=C(/C=C\c1cccc([N+](=O)[O-])c1)c1ccccc1 | 7.54 µM | 28.5 µM | 2.17 µM | 4.6 µM | 3.53 µM | 14.4 µM | 7.93 µM | 22 µM | 2.85 µM | 12.1 µM | 5.97 µM | 61 µM | 1.76 µM | 3.6 µM | 0.568 µM | > 100 µM | 1.9 µM | 3.81 µM | 4.85 µM | 12.4 µM
3 | O=C1C(CN(Cc2ccccc2)Cc2ccccc2)CCCC1CN(Cc1ccccc1)Cc1ccccc1 (stereo not given) |  | > 100 µM | 21 µM and > 100 µM | 38.8 µM and > 100 µM |  | > 100 µM | 29.2 µM and > 100 µM | 45.2 µM and > 100 µM |  | > 100 µM | > 100 µM and 28.1 µM | > 100 µM | 29.6 µM and > 100 µM | 46.8 µM and > 100 µM |  | 14.2 µM and > 100 µM | 15.9 µM and > 85.3 µM | 25.7 µM and > 100 µM | 27.9 µM and > 100 µM | 49.1 µM and > 100 µM
4 | CC(C)[C@@H]1NC(=O)[C@]2(C)CSC(=N2)c2csc(n2)CNC(=O)C[C@@H](/C=C/CCS)OC1=O | 0.0332 µM | > 100 µM | 0.0564 µM | 7.01 µM | 0.0612 µM | 4.17 µM | 0.0477 µM | 0.28 µM | 0.397 µM | > 100 µM | 0.0471 µM |  | 0.359 µM | 4.12 µM | 0.276 µM | > 100 µM | 1.75 µM | 9.12 µM | 0.0537 µM | 2.15 µM
5 | COc1ccc(C2=C(Br)C(=O)OC2)cc1Cl | 33.2 µM | > 100 µM | 30.9 µM | > 93.1 µM | 27.4 µM | > 100 µM | 20.9 µM | > 64.4 µM | 22.7 µM | 64.7 µM | 41.2 µM | > 88.5 µM | 45.7 µM | > 89.8 µM | 21.9 µM | > 68 µM | 19.3 µM | 39.9 µM | 21 µM | 59.5 µM
6 | O=C(/C=C/c1ccccc1Cl)c1ccc(O)cc1 | 4.4 µM | 16.8 µM | 11 µM | 23 µM | 4.23 µM | 17.6 µM | 7.88 µM | 21.8 µM | 2.3 µM | 6.76 µM | 2.33 µM | 7.19 µM | 3.46 µM | 9.22 µM | 6.18 µM | 35 µM | 6.99 µM | 19.2 µM | 9.79 µM | 22.5 µM
7 | CN(C)c1cc2c(cc1Sc1nc3c(N)nccc3n1CCNCC(C)(C)C)OCO2 | 0.376 µM | 12.1 µM | 0.621 µM | 15.6 µM | 0.426 µM | 15.4 µM | 0.432 µM | 5.41 µM | 4.22 µM | 25 µM | 2.04 µM | 23.7 µM | 0.614 µM | 15.8 µM | 0.317 µM | 18.2 µM | 0.573 µM | > 59.6 µM | 0.473 µM | 11.9 µM
8 | Clc1ccc(-c2nc(-c3c[nH]c4ncccc34)cs2)cc1 | > 100 µM | > 100 µM | > 100 µM | > 100 µM | > 100 µM | > 100 µM | > 100 µM | > 100 µM | > 100 µM | > 100 µM | > 100 µM | > 100 µM | > 100 µM | > 100 µM | > 100 µM | > 100 µM | > 100 µM | > 100 µM | > 100 µM | > 100 µM
9 | Cc1oncc1C(=O)Nc1ccc(C(F)(F)F)cc1 | 24.8 µM | > 100 µM | 56.7 µM | > 100 µM | 46.9 µM | > 100 µM | 36 µM | > 100 µM | 22.1 µM | > 100 µM | 54.5 µM | > 100 µM | 20.8 µM | 78.7 µM | 17.8 µM | > 100 µM | 41.7 µM | > 100 µM | 26.9 µM | > 100 µM
10 | O=C(O[C@H]1CN[C@H](C#Cc2cc3ncnc(Nc4ccc(Cc5ccccc5)cc4)c3s2)C1)N1CCOCC1 | 7.52 µM | > 25 µM | 4.78 µM | 10.9 µM | 6.33 µM | > 22.5 µM | 6.25 µM | > 23.5 µM | 4.74 µM | 10.6 µM | 3.06 µM | > 21.7 µM | 3.85 µM | 11 µM | 6.98 µM | > 25 µM | 3.53 µM | > 25 µM | 5.46 µM | > 22.1 µM
11 | NC(=O)Cc1ccccc1Oc1nccc(-c2c(-c3ccc(F)cc3)ncn2C2CCNCC2)n1 | > 25 µM | > 25 µM | > 25 µM | > 25 µM | > 25 µM | > 25 µM | > 25 µM | > 25 µM | > 25 µM | > 25 µM | > 9.24 µM | > 25 µM | > 25 µM | > 25 µM | > 25 µM | > 25 µM | > 25 µM | > 25 µM | > 25 µM | > 25 µM
12 | S=c1cn[nH]c2ccc(Br)cc12 |  | > 100 µM |  | > 100 µM |  | > 100 µM |  | > 100 µM |  | > 100 µM |  | > 100 µM |  | > 100 µM |  | > 100 µM |  | > 100 µM |  | > 100 µM
13 | Cc1nc(NC(=O)COc2cccc(/C=C3\COc4ccccc4C3=O)c2)sc1C | 3.19 µM | 11.3 µM | 1.79 µM | 3.32 µM | 2.14 µM | 5.74 µM | 2.05 µM | 4.51 µM | 1.59 µM | 3.28 µM | 2.72 µM | 8.6 µM | 1.83 µM | 3.27 µM | 3.42 µM | > 100 µM | 1.85 µM | 3.77 µM | 2.88 µM | 8.13 µM
14 | O=[N+]([O-])c1ccccc1S(=O)(=O)c1ccccc1[N+](=O)[O-] |  | > 100 µM |  | > 100 µM |  | > 100 µM |  | > 100 µM |  | > 100 µM |  | > 100 µM |  | > 100 µM |  | > 100 µM |  | > 100 µM |  | > 100 µM
15 | Cn1c(=O)c(Sc2ccccc2F)cc2cnc(NC3CCOCC3)nc21 | > 25 µM | > 25 µM | > 25 µM | > 25 µM | > 25 µM | > 25 µM | > 25 µM | > 25 µM | > 25 µM | > 25 µM | > 25 µM | > 25 µM | > 25 µM | > 25 µM | > 25 µM | > 25 µM | > 25 µM | > 25 µM | > 25 µM | > 25 µM
16 | COc1ccccc1/C=C1\CCC(CN(C)C)C1=O (stereo not given) |  | 44.5 µM |  | 12.2 µM |  | 25.2 µM |  | 13.9 µM |  | 28.1 µM |  | > 45.8 µM |  | 18.6 µM |  | 8.47 µM |  | 15.2 µM |  | 25 µM
17 | O=S(=O)(c1ccc2c(c1)C(=NO)c1cc(S(=O)(=O)N3CCCCC3)ccc1-2)N1CCCCC1 | 0.214 µM and 0.106 µM | 0.465 µM and 0.268 µM | 0.346 µM and 0.177 µM | > 1 µM and 0.326 µM | 0.173 µM and 0.102 µM | 0.317 µM and 0.244 µM | 0.227 µM and 0.174 µM | 0.612 µM and 0.329 µM | 0.173 µM and 0.179 µM | 0.332 µM and 0.326 µM | 0.24 µM and 0.198 µM | 0.772 µM and 0.48 µM | 0.87 µM and 0.177 µM | > 1 µM and 0.321 µM | 0.0727 µM | 0.338 µM | 0.188 µM and 0.163 µM | 0.389 µM and 0.319 µM | 0.17 µM | 0.32 µM

— PubChem BioAssay (NCI)
